{
  "source": "patent US11400091B2",
  "about": "“AXL kinase inhibitors and use of the same” (Sumitomo Pharma Oncology, Inc., priority 2018, dated 2022)",
  "key": {"[1]": {"system": "CYP26 mRNA in MV4-11 leukemia cells", "test": "CYP26 mRNA expression (RT-PCR)", "format": "cell-based", "conditions": "1 μM RA; 6 hours"}, "H1650": {"system": "H1650", "test": "H1650 NSCLC xenograft", "format": "in vivo, athymic nude mice", "conditions": "21-day regimen; tartrate salt 40 mpk qd; osimertinib 20 mpk qd", "experimental": "H1650 cells were injected subcutaneously into the hind flank of athymic nude mice at 1×10^7 cells/mouse. Once tumor volumes exceeded 100 mm^3, mice were randomized into study arms.\nTo assess the combination in vivo, the H1650 xenograft model for NSCFC was utilized. […] Slug and E-cadherin mRNA expression was assessed by standard qPCR technique. […] Slug and E-cadherin protein expression was assessed by standard immunoblotting technique.\n(§1) Tumor volumes and bodyweights were assessed twice weekly.\nas §1"}, "H1650 NSCLC cell line": {"system": "H1650 NSCLC cell line", "test": "H1650 cell viability (CellTiter-Glo)", "format": "cell-based", "conditions": "Homo sapiens, NCI-H1650"}, "ES-2 cells": {"system": "ES-2 cells", "test": "Scratch assay, migration of ovarian tumor cells", "format": "cell-based", "conditions": "6 hours pre-treatment; images 18 hours post-scratching; BMS-777607 up to 10 μM"}, "[2]": {"test": "Solid state stability at 40° C./75% RH", "format": "physicochemical", "experimental": "Agilent 1260 HPLC was utilized and detailed chromatographic conditions for purity and solubility measurement are listed in Table 13 below.\nThe table below summarizes the characterization and solid state stability results observed for FB and Forms A, B, and D. Samples were prepared and data was obtained according to the procedures and processes listed above unless otherwise specified. More procedures, processes, and results are listed below in Table 14."}, "[3]": {"test": "Dynamic Vapor Sorption (DVS)", "format": "physicochemical", "conditions": "25° C.", "experimental": "The Dynamic Vapour Sorption studies were performed using a Surface Measurement Systems Ltd. DVS-1 No Video, equipment #2126. The sample is loaded into balance pan, typically 20-30 mg, and equilibrated at 0% RH. […] After completion of the sorption cycle, the sample was dried using the same method. The software used for data collection is DVSWin v3.01 No Video. Data analysis is performed using DVS Standard Analysis Suite v6.3.0 (Standard)."}, "[4]": {"test": "Kinetic solubility in bio-relevant buffers", "format": "physicochemical", "conditions": "for solubility at 24 h: 37 °C, thermodynamic from solid"}, "pH solubility": {"test": "pH solubility", "format": "physicochemical", "conditions": "for solubility at 24 h: 37 °C, thermodynamic from solid; for FC (form change) of residual solid: 24 hours"}, "[5]": {"test": "Single dose toxicity study", "format": "in vivo", "conditions": "single oral 150 mg/kg (free base equivalent); by the end of the recovery period", "experimental": "The FB dose levels evaluated were 20, 50, and 150 mg/kg. The test articles were formulated with 1% Tween 80/5% TPGS/Sterile Water for Injection (v/v/v) and the study designed as indicated in Table 15 below:\nEndpoints in the study consisted of mortality checks, clinical observations, body weight measurements and toxicokinetics. Following a 7-day post-dose observation period, animals were euthanized, necropsied and macroscopic observations recorded."}, "[6]": {"test": "7-day repeat dose toxicity and toxicokinetics", "format": "in vivo, CD-1 mice", "conditions": "high dose level (80 mg/kg/day)", "description": "The test articles were formulated with 1% Tween 80/5% TPGS/Sterile Water for Injection (v/v/v) and the study designed as indicated in Table 16 below:\nEndpoints during the study consisted of clinical observations, body weight, and toxicokinetics. Animals euthanized due to excessive body weight loss in the toxicology-designated groups were euthanized, necropsied, and macroscopic observations recorded."}, "[7]": {"test": "Stability studies of crystalline forms (HPLC)", "format": "physicochemical", "conditions": "for Stability by HPLC: mono-tartrate salt"}, "[8]": {"test": "Moisture sorption isotherm of crystalline forms", "format": "physicochemical"}},
  "data": [
    {"compound": "Retinyl Acetate [RA]", "values": [
      {"measurement": "induction in mRNA expression levels of CYP26", "setting": "[1]", "value": "~4.3", "unit": "fold"}
    ]},
    {"compound": "C=CC(=O)Nc1cc(Nc2nccc(-c3cn(C)c4ccccc34)n2)c(OC)cc1N(C)CCN(C)C", "note": "[osimertinib]", "values": [
      {"measurement": "tumor growth inhibition (% TGI), single agent", "setting": "H1650", "value": 121, "unit": "%"},
      {"measurement": "EC50", "setting": "H1650 NSCLC cell line", "value": 2200, "unit": "nM"},
      {"measurement": "IC50", "setting": "H1650 NSCLC cell line; single agent, 72 hours", "value": 2200, "unit": "nM"}
    ]},
    {"compound": "CCOc1ccn(-c2ccc(F)cc2)c(=O)c1C(=O)Nc1ccc(Oc2ccnc(N)c2Cl)c(F)c1", "note": "[BMS-777607]", "values": [
      {"measurement": "migration of ES-2 cells", "setting": "ES-2 cells", "value": "did not inhibit migration"}
    ]},
    {"compound": "CN1CCN(Cc2ccc(Nc3ncc(Cl)c(Nc4ccccc4S(=O)(=O)N(C)C)n3)cc2)CC1.O=C(O)C(O)C(O)C(=O)O", "note": "[Form D, 2-((5-chloro-2-((4-((4-methylpiperazin-1-yl)methyl)phenyl)amino)pyrimidin-4-yl)amino)-N,N-dimethylbenzenesulfonamide mono-tartrate salt]", "values": [
      {"measurement": "Form Change at 3 weeks", "setting": "[2]; 3 weeks under 40° C./75% RH", "value": "No"},
      {"measurement": "HPLC Purity at 3 weeks (area %)", "setting": "[2]; 3 weeks under 40° C./75% RH", "value": 98.3, "unit": "area %"},
      {"measurement": "Initial HPLC Purity (area %)", "setting": "[2]; initial, before storage", "value": 98.8, "unit": "area %"},
      {"measurement": "water uptake at 80% RH", "setting": "[3]; DVS, mono-tartrate salt", "value": 5.2, "unit": "%"},
      {"measurement": "FC (form change) after DVS", "setting": "[3]; up to 80% RH", "value": "Yes"},
      {"measurement": "solubility at 24 h", "setting": "[4]; FaSSIF, 24 hours", "value": 3900, "unit": "µg/mL"},
      {"measurement": "FC (form change) of residual solid", "setting": "[4]; FaSSIF, 24 hours", "value": "Yes"},
      {"measurement": "solubility at 24 h", "setting": "[4]; FeSSIF, 24 hours", "value": 4600, "unit": "µg/mL"},
      {"measurement": "solubility at 24 h", "setting": "[4]; SGF, simulated gastric fluid, 24 hours", "value": "> 11000", "unit": "µg/mL"},
      {"measurement": "solubility kinetic", "setting": "[4]; bio-relevant buffers (FaSSIF, fassgf or other biorelevant, thermodynamic from solid), FaSSIF, FeSSIF and SGF, 37° C., read-out: kinetic solubility in all biorelevant buffers", "value": "> 5000", "unit": "µg/mL"},
      {"measurement": "solubility at 24 h", "setting": "pH solubility; pH 2.0 buffer, pH 2, aqueous buffer", "value": "> 6800", "unit": "µg/mL"},
      {"measurement": "FC (form change) of residual solid", "setting": "pH solubility; pH 4.0", "value": "Yes"},
      {"measurement": "solubility at 24 h", "setting": "pH solubility; pH 4.0 buffer, pH 4, aqueous buffer", "value": 230, "unit": "µg/mL"},
      {"measurement": "FC (form change) of residual solid", "setting": "pH solubility; pH 6.0", "value": "Yes"},
      {"measurement": "solubility at 24 h", "setting": "pH solubility; pH 6.0 buffer, pH 6, aqueous buffer", "value": 1900, "unit": "µg/mL"},
      {"measurement": "FC (form change) of residual solid", "setting": "pH solubility; pH 8.0", "value": "Yes"},
      {"measurement": "solubility at 24 h", "setting": "pH solubility; pH 8.0 buffer, pH 8, aqueous buffer", "value": 5, "unit": "µg/mL"},
      {"measurement": "FC (form change) of residual solid", "setting": "pH solubility; pH 10.0", "value": "Yes"},
      {"measurement": "solubility at 24 h", "setting": "pH solubility; pH 10.0 buffer, pH 10, aqueous buffer", "value": 53, "unit": "µg/mL"},
      {"measurement": "mortality", "setting": "[5]", "value": 100, "unit": "%"},
      {"measurement": "mortality", "setting": "[6]", "value": "one mouse died"},
      {"measurement": "Stability Results", "setting": "[7]; 40° C.", "value": 98.2, "unit": "%"},
      {"measurement": "Stability Results", "setting": "[7]; 40° C./75% RH", "value": 98.4, "unit": "%"},
      {"measurement": "Stability Results", "setting": "[7]; 60° C.", "value": 98.2, "unit": "%"},
      {"measurement": "Stability Results", "setting": "[7]; 60° C./75% RH", "value": 98.2, "unit": "%"},
      {"measurement": "Stability Results", "setting": "[7]; Initial", "value": 98.4, "unit": "%"},
      {"measurement": "Stability by HPLC", "setting": "[7]; listed as D", "value": "Stable"},
      {"measurement": "Stability by HPLC", "setting": "[7]", "value": "No significant changes"},
      {"measurement": "Moisture sorption isotherm", "setting": "[8]", "value": "hygroscopic"},
      {"measurement": "crystal form by XRPD after the moisture absorption/desorption cycle", "setting": "[8]", "value": "transformed to the other forms"}
    ]}
  ]
}
